Values of other authors as cited in patent US8895779B2 (BioAmber Inc., priority 2010, dated 2014).

Settings: Table 1, Run 1, acid charged

pKa1: 4.43
Compound: O=C(O)CCCCC(=O)O [AA, adipic acid]
